Experimental data: US11866450B2, “Modulators of Cystic Fibrosis Transmembrane Conductance regulator, pharmaceutical compositions, methods of treatment, and process for making the modulators” (priority 2018, dated 2024)
Several values for one entry are separate records, joined by “and”; a condition that tells them apart may be missing. Equal values may be shown once. Read-outs that look alike come from different tables or passages of the source.

Legend:
[1] = snar bond
[2] = biological target: CFTR-mediated chloride transport (Homo sapiens, UniProt P13569); assay type: cell-based; conditions: enteroid cells incubated with test compound 18-24 hours, acute 10 μM forskolin and 300 nM Compound III; for Max. Activity: % of chloride transport with 3 μM Compound A, 3 μM Compound II and 300 nM acute Compound III triple combination control
Sequence of CFTR-mediated chloride transport (P13569 whole entry, looked up): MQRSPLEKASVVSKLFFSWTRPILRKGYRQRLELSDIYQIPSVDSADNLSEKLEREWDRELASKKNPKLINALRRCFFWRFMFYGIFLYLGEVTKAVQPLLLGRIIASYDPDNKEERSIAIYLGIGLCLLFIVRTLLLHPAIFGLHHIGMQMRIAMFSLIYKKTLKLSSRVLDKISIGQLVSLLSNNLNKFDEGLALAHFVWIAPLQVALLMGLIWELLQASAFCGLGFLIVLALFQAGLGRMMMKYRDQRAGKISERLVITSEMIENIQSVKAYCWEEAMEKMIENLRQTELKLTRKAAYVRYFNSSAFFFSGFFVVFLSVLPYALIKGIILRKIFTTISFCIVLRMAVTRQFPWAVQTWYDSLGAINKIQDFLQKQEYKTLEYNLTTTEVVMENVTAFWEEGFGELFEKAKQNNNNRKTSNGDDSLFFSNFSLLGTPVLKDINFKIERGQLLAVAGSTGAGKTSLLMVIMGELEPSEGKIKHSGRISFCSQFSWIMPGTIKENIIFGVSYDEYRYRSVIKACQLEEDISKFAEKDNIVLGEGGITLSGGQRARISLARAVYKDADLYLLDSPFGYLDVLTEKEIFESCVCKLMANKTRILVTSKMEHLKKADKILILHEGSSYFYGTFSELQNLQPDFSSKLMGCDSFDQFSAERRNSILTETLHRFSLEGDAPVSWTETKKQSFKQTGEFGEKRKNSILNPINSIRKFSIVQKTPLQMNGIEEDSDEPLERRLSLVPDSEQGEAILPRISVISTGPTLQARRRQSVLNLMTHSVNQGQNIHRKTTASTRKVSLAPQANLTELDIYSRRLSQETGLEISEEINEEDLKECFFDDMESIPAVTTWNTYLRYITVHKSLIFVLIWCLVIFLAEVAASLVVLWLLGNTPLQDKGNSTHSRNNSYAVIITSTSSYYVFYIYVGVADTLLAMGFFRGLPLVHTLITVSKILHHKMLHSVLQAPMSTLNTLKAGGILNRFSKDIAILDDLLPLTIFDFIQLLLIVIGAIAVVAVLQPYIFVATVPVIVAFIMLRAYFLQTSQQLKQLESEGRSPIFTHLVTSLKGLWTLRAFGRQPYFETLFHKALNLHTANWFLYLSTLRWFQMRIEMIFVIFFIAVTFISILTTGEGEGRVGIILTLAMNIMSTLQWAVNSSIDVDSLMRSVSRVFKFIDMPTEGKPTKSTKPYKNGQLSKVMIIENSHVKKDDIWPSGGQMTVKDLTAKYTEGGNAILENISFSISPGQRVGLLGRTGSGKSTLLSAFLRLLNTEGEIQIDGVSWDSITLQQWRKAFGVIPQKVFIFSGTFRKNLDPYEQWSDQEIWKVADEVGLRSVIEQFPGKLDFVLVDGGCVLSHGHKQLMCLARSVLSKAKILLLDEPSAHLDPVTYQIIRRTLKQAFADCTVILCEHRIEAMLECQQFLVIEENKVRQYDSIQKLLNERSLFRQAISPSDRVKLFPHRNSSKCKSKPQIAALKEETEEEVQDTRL
In short: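 Human intestinal enteroid cells incubated with compound 18–24 h at 37° C., then membrane potential dye (FLIPR) read 15 min after chloride-free stimulation with 10 μM forskolin, 100 μM IBMX and 300 nM Compound III. AUC expressed as % of triple-combination control (3 μM Compound A, 3 μM Compound II, 300 nM Compound III).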

| SMILES | EC50 [2] [µM] | Max. Activity [2] | other results |
| --- | --- | --- | --- |
| CC1(C)CC2CCCn3ccc(n3)S(=O)(=O)NC(=O)c3ccc(-n4ccc(OCCC(C5CC5)C5CC5)n4)nc3N1C2 (stereo not drawn) [Compound 141, 4-[3-(3,3-Dicyclopropylpropoxy)-1H-pyrazol-1-yl]-20,20-dimethyl-10λ^6-thia-1,3,9,14,22-pentaazatetracyclo[16.2.1.111,14.02,7]docosa-2,4,6,11(22),12-pentaene-8,10,10-trione] | < 1 | +++ (+++ is >60%) | ring closure, yield after HPLC ([1]; from CC(C)(C)OC(=O)N1CC(CCCn2ccc(S(=O)(=O)NC(=O)c3ccc(-n4ccc(OCCC(C5CC5)C5CC5)n4)nc3Cl)n2)CC1(C)C, 14-membered ring, K2CO3/CsF/3A MS, DMSO, 66.2 mM, 150.0 °C, 2 steps): 23% and 22% |
| CC1(C)CC2CCCNc3ccnc(c3)S(=O)(=O)NC(=O)c3ccc(-n4ccc(OCCC5(C(F)(F)F)CC5)n4)nc3N1C2 (stereo not drawn) [Compound 23, 12,12-dimethyl-8-(3-{2-[1-(trifluoromethyl)cyclopropyl]ethoxy}-1H-pyrazol-1-yl)-2λ^6-thia-3,9,11,18,22-pentaazatetracyclo[17.3.1.111,14.05,10]tetracosa-1(23),5(10),6,8,19,21-hexaene-2,2,4-trione] | > 3 | + (+ is <30%) | ring closure, yield after HPLC ([1]; from CC(C)(C)OC(=O)N1CC(CCCNc2ccnc(S(=O)(=O)NC(=O)c3ccc(-n4ccc(OCCC5(C(F)(F)F)CC5)n4)nc3Cl)c2)CC1(C)C, 15-membered ring, K2CO3/CsF, DMSO, 13.0 mM, 150.0 °C, 2 steps): 9% |
| CC1(C)CC2CN1c1nc(-n3ccc(OCCC4(C(F)(F)F)CC4)n3)ccc1C(=O)NS(=O)(=O)c1ccn(n1)CCO2 (racemic) [Compound 164, 20,20-Dimethyl-4-(3-{2-[1-(trifluoromethyl)cyclopropyl]ethoxy}-1H-pyrazol-1-yl)-17-oxa-10λ^6-thia-1,3,9,14,22-pentaazatetracyclo[16.2.1.111,14.02,7]docosa-2(7),3,5,11(22),12-pentaene-8,10,10-trione] | 1 to 3 | ++ (++ is 30-60%) | ring closure, yield after HPLC ([1]; from CC(C)(C)OC(=O)N1CC(OCCn2ccc(S(=O)(=O)NC(=O)c3ccc(-n4ccc(OCCC5(C(F)(F)F)CC5)n4)nc3Cl)n2)CC1(C)C, 14-membered ring, K2CO3/CsF/3A MS, DMSO, 62.6 mM, 140.0 °C, 2 steps): 30% |
| CC1(C)CC2CCCNc3cccc(n3)S(=O)(=O)NC(=O)c3ccc(-n4ccc(OCCC(C5CC5)C5CC5)n4)nc3N1C2 (stereo not drawn) [Compound 43, 8-[3-(3,3-dicyclopropylpropoxy)-1H-pyrazol-1-yl]-12,12-dimethyl-2λ^6-thia-3,9,11,18,23-pentaazatetracyclo[17.3.1.111,14.05,10]tetracosa-1(22),5,7,9,19(23),20-hexaene-2,2,4-trione] | < 1 | +++ (+++ is >60%) | ring closure, yield after HPLC ([1]; from CC1(C)CC(CCCNc2cccc(S(=O)(=O)NC(=O)c3ccc(-n4ccc(OCCC(C5CC5)C5CC5)n4)nc3Cl)n2)CN1, 15-membered ring, K2CO3/CsF/3A MS, DMSO, 26.4 mM, 130.0 °C, 2 steps): 55% |
| CC1(C)C[C@@H]2CCCNc3cccc(n3)S(=O)(=O)NC(=O)c3ccc(C4=CCCCO4)nc3N1C2 [Compound 303, (14S)-8-(3,4-dihydro-2H-pyran-6-yl)-12,12-dimethyl-2λ^6-thia-3,9,11,18,23-pentaazatetracyclo[17.3.1.111,14.05,10]tetracosa-1(22),5,7,9,19(23),20-hexaene-2,2,4-trione] | < 1 | +++ (+++ is >60%) | ring closure, yield after HPLC ([1]; from CC1(C)C[C@H](CCCNc2cccc(S(=O)(=O)NC(=O)c3ccc(C4=CCCCO4)nc3Cl)n2)CN1, 15-membered ring, K2CO3, NMP, 25.7 mM, 180.0 °C): 3% |
| CC(C)C(COc1ccn(-c2ccc3c(n2)N2C[C@@H](CCCNc4cccc(n4)S(=O)(=O)NC3=O)CC2(C)C)n1)C(C)C [Compound 227, (14S)-12,12-Dimethyl-8-{3-[3-methyl-2-(propan-2-yl)butoxy]-1H-pyrazol-1-yl}-2λ^6-thia-3,9,11,18,23-pentaazatetracyclo[17.3.1.111,14.05,10]tetracosa-1(23),5(10),6,8,19,21-hexaene-2,2,4-trione] | < 1 | +++ (+++ is >60%) | ring closure, yield after HPLC ([1]; from CC(C)C(COc1ccn(-c2ccc(C(=O)NS(=O)(=O)c3cccc(NCCC[C@@H]4CNC(C)(C)C4)n3)c(Cl)n2)n1)C(C)C, 15-membered ring, K2CO3/CsF/4A MS, DMSO, 73.3 mM, 150.0 °C): 20% |
| CC1(C)C[C@@H]2CCCNc3cccc(n3)S(=O)(=O)NC(=O)c3ccc(-n4ccc(O)n4)nc3N1C2 [Compound 256, (14S)-8-(3-hydroxy-1H-pyrazol-1-yl)-12,12-dimethyl-2λ^6-thia-3,9,11,18,23-pentaazatetracyclo[17.3.1.111,14.05,10]tetracosa-1(22),5,7,9,19(23),20-hexaene-2,2,4-trione] | > 3 | ++ (++ is 30-60%) | ring closure, yield after HPLC ([1]; from CC(C)(C)OC(=O)N1C[C@@H](CCCNc2cccc(S(=O)(=O)NC(=O)c3ccc(-n4ccc(OCC5C(C)(C)C5(C)C)n4)nc3Cl)n2)CC1(C)C, 15-membered ring, TFA/DCM, then K2CO3/CsF/3A MS, DMSO, 23.1 mM, 150.0 °C, 2 steps): 17% |
| [2H]C([2H])(COc1ccn(-c2ccc3c(n2)N2C[C@@H](CCCNc4cccc(n4)S(=O)(=O)NC3=O)CC2(C)C)n1)CC1(C(F)(F)F)CC1 [Compound 270, (14S)-12,12-Dimethyl-8-(3-{3-[1-(trifluoromethyl)cyclopropyl]-2,2-dideuterio-propoxy}-1H-pyrazol-1-yl)-2λ^6-thia-3,9,11,18,23-pentaazatetracyclo[17.3.1.111,14.05,10]tetracosa-1(23),5(10),6,8,19,21-hexaene-2,2,4-trione] | < 1 | +++ (+++ is >60%) | ring closure, yield after HPLC ([1]; from [2H]C([2H])(COc1ccn(-c2ccc(C(=O)NS(=O)(=O)c3cccc(NCCC[C@@H]4CN(C(=O)OC(C)(C)C)C(C)(C)C4)n3)c(Cl)n2)n1)CC1(C(F)(F)F)CC1, 15-membered ring, TFA/DCM, then K2CO3/CsF/3A MS, DMSO, 27.0 mM, 150.0 °C, 2 steps): 44% |
| CC1(C)CC2CCCCn3ccc(n3)S(=O)(=O)NC(=O)c3ccc(-n4ccc(OCCCC5(C(F)(F)F)CC5)n4)nc3N1C2 (stereo not drawn) [Compound 275, 21,21-Dimethyl-4-(3-{3-[1-(trifluoromethyl)cyclopropyl]propoxy}-1H-pyrazol-1-yl)-10λ^6-thia-1,3,9,14,23-pentaazatetracyclo[17.2.1.111,14.02,7]tricosa-2,4,6,11(23),12-pentaene-8,10,10-trione] | 1 to 3 | ++ (++ is 30-60%) | ring closure, yield after HPLC ([1]; from CC1(C)CC(CCCCn2ccc(S(=O)(=O)NC(=O)c3ccc(-n4ccc(OCCCC5(C(F)(F)F)CC5)n4)nc3Cl)n2)CN1, 15-membered ring, K2CO3/CsF/3A MS, DMSO, 24.7 mM, 150.0 °C, 18.0 h): 47% |
| CC1(C)CCC2CCCOc3cccc(n3)S(=O)(=O)NC(=O)c3ccc(-n4ccc(OCCC5(C(F)(F)F)CC5)n4)nc3N21 (stereo not drawn) [Compound 147, 12,12-dimethyl-8-(3-{2-[1-(trifluoromethyl)cyclopropyl]ethoxy}-1H-pyrazol-1-yl)-19-oxa-2λ^6-thia-3,9,11,24-tetraazatetracyclo[18.3.1.05,10.011,15]tetracosa-1(24),5(10),6,8,20,22-hexaene-2,2,4-trione] | < 1 | ++ (++ is 30-60%) | ring closure, yield after HPLC ([1]; from CC(C)(C)OC(=O)N1C(CCCOc2cccc(S(=O)(=O)NC(=O)c3ccc(-n4ccc(OCCC5(C(F)(F)F)CC5)n4)nc3Cl)n2)CCC1(C)C, 14-membered ring, K2CO3/CsF/3A MS, DMSO, 66.1 mM, 140.0 °C, 2 steps): 5% |
| CC(C)COc1cc(F)cc(-c2ccc3c(n2)N2C[C@@H](CCCn4ccc(n4)S(=O)(=O)NC3=O)CC2(C)C)c1 [Compound 226] | < 1 | ++ (++ is 30-60%) | ring closure, yield after HPLC ([1]; from CC(C)COc1cc(F)cc(-c2ccc(C(=O)NS(=O)(=O)c3ccn(CCC[C@@H]4CN(C(=O)OC(C)(C)C)C(C)(C)C4)n3)c(Cl)n2)c1, 14-membered ring, K2CO3/CsF/3A MS, DMSO, 15.0 mM, 150.0 °C, 2 steps): 34% |
| CC1(C)CC2CCCNc3cc(ccn3)S(=O)(=O)NC(=O)c3ccc(-n4ccc(OCCC5(C(F)(F)F)CC5)n4)nc3N1C2 (stereo not drawn) [Compound 93, 12,12-dimethyl-8-(3-{2-[1-(trifluoromethyl)cyclopropyl]ethoxy}-1H-pyrazol-1-yl)-2λ^6-thia-3,9,11,18,20-pentaazatetracyclo[17.3.1.111,14.05,10]tetracosa-1(22),5,7,9,19(23),20-hexaene-2,2,4-trione] | < 1 | +++ (+++ is >60%) | ring closure, yield after HPLC ([1]; from CC(C)(C)OC(=O)N1CC(CCCNc2cc(S(=O)(=O)NC(=O)c3ccc(-n4ccc(OCCC5(C(F)(F)F)CC5)n4)nc3Cl)ccn2)CC1(C)C, 15-membered ring, TFA (Boc off), CsF/K2CO3/3A MS, DMSO, 26.0 mM, 130.0 °C, 2 steps): 30% |
| [2H]C1(CCOc2ccn(-c3ccc4c(n3)N3C[C@@H](CCCNc5cccc(n5)S(=O)(=O)NC4=O)CC3(C)C)n2)C2(CC2)C12CC2 [Compound 253, (14S)-8-(3-{2-[(7-deuterio)dispiro[2.0.2.1]heptan-7-yl]ethoxy}-1H-pyrazol-1-yl)-12,12-dimethyl-2λ^6-thia-3,9,11,18,23-pentaazatetracyclo[17.3.1.111,14.05,10]tetracosa-1(22),5,7,9,19(23),20-hexaene-2,2,4-trione] | < 1 | +++ (+++ is >60%) | ring closure, yield after HPLC ([1]; from [2H]C1(CCOc2ccn(-c3ccc(C(=O)NS(=O)(=O)c4cccc(NCCC[C@@H]5CN(C(=O)OC(C)(C)C)C(C)(C)C5)n4)c(Cl)n3)n2)C2(CC2)C12CC2, 15-membered ring, K2CO3/CsF/3A MS, DMSO, 20.4 mM, 150.0 °C, 2 steps): 43% |
